Measured values published in patent US10441630B2, “Topical formulations and uses thereof” (OCULAR TECHNOLOGIES SARL, priority 2012, dated 2019).

Key:
[1] = Physical appearance, melt method, HCO-40 and compound 1001; format: physicochemical; settings: 1001 4 wt %
Protocol: The preparation of MNF encapsulating compound 1001 (neat oil) can be divided into two steps. […] […] To this melt polymer compound 1001 (˜20 mg), thermostated at 40° C., was added and mixed for homogenous distribution. […] (in refrigerator).
(§1) This aqueous solution was allowed to reach room temperature, under natural conditions. The pH of the solution was adjusted to 5.5 and the volume was made up with 2× phosphate buffer saline (pH 5.5) containing octoxynol-40 (0.01 wt %) and PVP-K-90 (1.2 wt %). The formulation was filtered through 0.2 μm nylon filter to remove any foreign material and obtain a clear homogenous aqueous RX-1001 formulation.
(§2) The results obtained for physical appearance of the mixture, different phases, at different temperatures and appearance of final formulation are summarized in Tables 3a-3c.

[2] = Physical appearance, melt method, HCO-40 and compound 1001, at 25° C. and 4° C.; format: physicochemical; settings: 1001 4 wt %; for Allow to reach room temperature (25° C.): brought back from 4° C.; for Mixture physical appearance at room temperature (4° C.): placed at 4° C.; for Resuspend in water: water at 40° C.
Protocol: The preparation of MNF encapsulating compound 1001 (neat oil) can be divided into two steps. As an example for the development of 3.0 wt % HCO-40 or HCO-60 MNF encapsulating 0.4% compound 1001 is described below. […] To this melt polymer compound 1001 (˜20 mg), thermostated at 40° C., was added and mixed for homogenous distribution. […] (in refrigerator).
as §1, §2

Final formulation ([1]; HCO-40 0.5 wt %): Emulsion | Mixture physical appearance at room temperature (25° C.) ([1]; HCO-40 0.5 wt %): Viscous yellow liquid | Resuspend in water ([1]; HCO-40 0.5 wt %): Emulsion | Final formulation ([1]; HCO-40 0.75 wt %): Emulsion | Mixture physical appearance at room temperature (25° C.) ([1]; HCO-40 0.75 wt %): Viscous yellow liquid | Resuspend in water ([1]; HCO-40 0.75 wt %): Emulsion | Final formulation ([1]; HCO-40 1.0 wt %): Emulsion | Mixture physical appearance at room temperature (25° C.) ([1]; HCO-40 1.0 wt %): Viscous yellow liquid | Resuspend in water ([1]; HCO-40 1.0 wt %): Emulsion | Final formulation ([1]; HCO-40 1.25 wt %): Emulsion | Mixture physical appearance at room temperature (25° C.) ([1]; HCO-40 1.25 wt %): Viscous yellow liquid | Resuspend in water ([1]; HCO-40 1.25 wt %): Emulsion | Final formulation ([1]; HCO-40 1.5 wt %): Emulsion | Mixture physical appearance at room temperature (25° C.) ([1]; HCO-40 1.5 wt %): Viscous yellow liquid | Resuspend in water ([1]; HCO-40 1.5 wt %): Emulsion | Final formulation ([1]; HCO-40 1.75 wt %): Emulsion | Mixture physical appearance at room temperature (25° C.) ([1]; HCO-40 1.75 wt %): Viscous yellow liquid | Resuspend in water ([1]; HCO-40 1.75 wt %): Emulsion | Final formulation ([1]; HCO-40 2.0 wt %): Emulsion | Mixture physical appearance at room temperature (25° C.) ([1]; HCO-40 2.0 wt %): Viscous yellow liquid | Resuspend in water ([1]; HCO-40 2.0 wt %): Emulsion | Final formulation ([1]; HCO-40 2.25 wt %): Emulsion | Mixture physical appearance at room temperature (25° C.) ([1]; HCO-40 2.25 wt %): Viscous yellow liquid | Resuspend in water ([1]; HCO-40 2.25 wt %): Emulsion | Final formulation ([1]; HCO-40 2.5 wt %): Yellow color | Mixture physical appearance at room temperature (25° C.) ([1]; HCO-40 2.5 wt %): Viscous yellow liquid | Resuspend in water ([1]; HCO-40 2.5 wt %): Yellow | Final formulation ([1]; HCO-40 2.75 wt %): Pale yellow | Mixture physical appearance at room temperature (25° C.) ([1]; HCO-40 2.75 wt %): Viscous yellow liquid | Resuspend in water ([1]; HCO-40 2.75 wt %): Pale | Final formulation ([1]; HCO-40 3.0 wt %): Clear solution | Mixture physical appearance at room temperature (25° C.) ([1]; HCO-40 3.0 wt %): Viscous yellow liquid | Resuspend in water ([1]; HCO-40 3.0 wt %): Clear | Final formulation ([1]; HCO-40 4.0 wt %): Clear solution | Mixture physical appearance at room temperature (25° C.) ([1]; HCO-40 4.0 wt %): Viscous yellow liquid | Resuspend in water ([1]; HCO-40 4.0 wt %): Clear | Final formulation ([2]; HCO-40 0.5 wt %): Emulsion | Mixture physical appearance at room temperature (25° C.) ([2]; HCO-40 0.5 wt %): Viscous yellow | Allow to reach room temperature (25° C.) ([2]; HCO-40 0.5 wt %): Viscous liquid | Mixture physical appearance at room temperature (4° C.) ([2]; HCO-40 0.5 wt %): Viscous liquid | Resuspend in water ([2]; HCO-40 0.5 wt %): Emulsion | Final formulation ([2]; HCO-40 0.75 wt %): Emulsion | Mixture physical appearance at room temperature (25° C.) ([2]; HCO-40 0.75 wt %): Viscous yellow | Allow to reach room temperature (25° C.) ([2]; HCO-40 0.75 wt %): Viscous liquid | Mixture physical appearance at room temperature (4° C.) ([2]; HCO-40 0.75 wt %): Viscous liquid | Resuspend in water ([2]; HCO-40 0.75 wt %): Emulsion | Final formulation ([2]; HCO-40 1.0 wt %): Emulsion | Mixture physical appearance at room temperature (25° C.) ([2]; HCO-40 1.0 wt %): Viscous yellow | Allow to reach room temperature (25° C.) ([2]; HCO-40 1.0 wt %): Viscous liquid | Mixture physical appearance at room temperature (4° C.) ([2]; HCO-40 1.0 wt %): Viscous liquid | Resuspend in water ([2]; HCO-40 1.0 wt %): Emulsion | Final formulation ([2]; HCO-40 1.25 wt %): Emulsion | Mixture physical appearance at room temperature (25° C.) ([2]; HCO-40 1.25 wt %): Viscous yellow | Allow to reach room temperature (25° C.) ([2]; HCO-40 1.25 wt %): Viscous liquid | Mixture physical appearance at room temperature (4° C.) ([2]; HCO-40 1.25 wt %): Viscous liquid | Resuspend in water ([2]; HCO-40 1.25 wt %): Emulsion | Final formulation ([2]; HCO-40 1.5 wt %): Emulsion | Mixture physical appearance at room temperature (25° C.) ([2]; HCO-40 1.5 wt %): Viscous yellow | Allow to reach room temperature (25° C.) ([2]; HCO-40 1.5 wt %): Viscous liquid | Mixture physical appearance at room temperature (4° C.) ([2]; HCO-40 1.5 wt %): Yellow waxy | Resuspend in water ([2]; HCO-40 1.5 wt %): Emulsion | Final formulation ([2]; HCO-40 1.75 wt %): Emulsion | Mixture physical appearance at room temperature (25° C.) ([2]; HCO-40 1.75 wt %): Viscous yellow | Allow to reach room temperature (25° C.) ([2]; HCO-40 1.75 wt %): Viscous liquid | Mixture physical appearance at room temperature (4° C.) ([2]; HCO-40 1.75 wt %): Yellow waxy | Resuspend in water ([2]; HCO-40 1.75 wt %): Emulsion | Final formulation ([2]; HCO-40 2.0 wt %): Emulsion | Mixture physical appearance at room temperature (25° C.) ([2]; HCO-40 2.0 wt %): Viscous yellow | Allow to reach room temperature (25° C.) ([2]; HCO-40 2.0 wt %): Viscous liquid | Mixture physical appearance at room temperature (4° C.) ([2]; HCO-40 2.0 wt %): Yellow waxy | Resuspend in water ([2]; HCO-40 2.0 wt %): Emulsion | Final formulation ([2]; HCO-40 2.25 wt %): Emulsion | Mixture physical appearance at room temperature (25° C.) ([2]; HCO-40 2.25 wt %): Viscous yellow | Allow to reach room temperature (25° C.) ([2]; HCO-40 2.25 wt %): Viscous liquid | Mixture physical appearance at room temperature (4° C.) ([2]; HCO-40 2.25 wt %): Yellow waxy | Resuspend in water ([2]; HCO-40 2.25 wt %): Emulsion | Final formulation ([2]; HCO-40 2.5 wt %): Yellow color | Mixture physical appearance at room temperature (25° C.) ([2]; HCO-40 2.5 wt %): Viscous yellow | Allow to reach room temperature (25° C.) ([2]; HCO-40 2.5 wt %): Viscous liquid | Mixture physical appearance at room temperature (4° C.) ([2]; HCO-40 2.5 wt %): Yellow waxy | Resuspend in water ([2]; HCO-40 2.5 wt %): Yellow | Final formulation ([2]; HCO-40 2.75 wt %): Very pale yellow | Mixture physical appearance at room temperature (25° C.) ([2]; HCO-40 2.75 wt %): Viscous yellow | Allow to reach room temperature (25° C.) ([2]; HCO-40 2.75 wt %): Viscous liquid | Mixture physical appearance at room temperature (4° C.) ([2]; HCO-40 2.75 wt %): Pale yellow waxy | Resuspend in water ([2]; HCO-40 2.75 wt %): Pale yellow | Final formulation ([2]; HCO-40 3.0 wt %): Clear solution | Mixture physical appearance at room temperature (25° C.) ([2]; HCO-40 3.0 wt %): Viscous yellow | Allow to reach room temperature (25° C.) ([2]; HCO-40 3.0 wt %): Viscous liquid | Mixture physical appearance at room temperature (4° C.) ([2]; HCO-40 3.0 wt %): Pale yellow solid | Resuspend in water ([2]; HCO-40 3.0 wt %): Clear | Final formulation ([2]; HCO-40 4.0 wt %): Clear solution | Mixture physical appearance at room temperature (25° C.) ([2]; HCO-40 4.0 wt %): Viscous yellow | Allow to reach room temperature (25° C.) ([2]; HCO-40 4.0 wt %): Pale yellow | Mixture physical appearance at room temperature (4° C.) ([2]; HCO-40 4.0 wt %): Pale yellow waxy | Resuspend in water ([2]; HCO-40 4.0 wt %): Clear
Compound: C#CC[C@@H](O)/C=C/C=C/C#C[C@@H](O)CCCC(=O)OC(C)C [compound 1001]
